Experimental data reported in patent US20060094003A1, “Acetylcholine-dependent current as a novel ionic target for atrial fibrillation” (priority 2004, published 2006).
Values joined by “and” are separate entries in the source; they are usually repeats but may differ in a detail not shown here. Identical values can stand only once.

How the values were obtained:
IKH = assay type: cell-based, canine
Protocol: (§1) Adult mongrel dogs of either sex (weighing about 20-35 kg) were anaesthetized with pentobarbital (30 mg kg^−1 I.V.) and artificially ventilated with room air. Hearts and adjacent lung tissue were relatively quickly excised through a left lateral thoracotomy and immersed in oxygenated Tyrode solution (composition detailed hereinbelow) at room temperature. […] A left atrial (LA) preparation with the PVs intact was perfused via the left circumflex coronary artery, and subjected to either standard fine-tipped microelectrode recording of action potentials (APs) or cardiomyocyte isolation with collagenase-containing solutions, as previously described (Ehrlich et al. 2003). Six dogs were subjected to atrial tachycardia-induced remodeling induced by 1 week of atrial pacing at about 400 beats min^−1 after ablation of the AV node, as described in Li et al. 1999. Animal care and handling procedures followed the guidelines of the Canadian Council on Animal Care.
(§2) To isolate LA and PV cardiomyocytes, the proximal circumflex artery was cannulated and the distal ends of PV myocardial sleeves (approximately 1-1.5 cm from the PV-LA junction) were marked with silk thread prior to subsequent enzyme perfusion with collagenase (100 U ml^−1, Worthington, type II), in order to facilitate localization of PV sleeves after enzymatic digestion. […] All comparisons were based on PV and LA cardiomyocytes isolated from each dog on each experimental day. After isolation, cells were stored at 4° C. and studied on the same day. For standard microelectrode experiments, intact tissue preparations including the LA and adjacent PVs were mounted in a chamber and perfused via the circumflex artery with oxygenated Krebs solution at 36±0.5° C. (see for example Kneller et al. 2002).
Currents were recorded with the whole-cell patch-clamp technique at 36±0.5° C., as described in Yue et al. 1996. All junction potentials were zeroed prior to formation of gigaohm seals. […] Capacitance was assessed using 5 mV, 10 ms hyperpolarizing steps from a holding potential (HP) of −60 mV. […] Original recordings are shown in terms of current amplitude, but mean data are presented as current density (pA pF−1) to control for variability in cell size.
(§3) Currents were recorded with hyperpolarizing and depolarizing pulses (generally 4 s duration) from a HP of −40 mV to selected test potentials (TPs). Recordings were repeated 3 times, and mean values obtained. For the determination of reversal potentials, tail currents were recorded after 1.6 s pulses to −120 mV followed by 3.2 s depolarizations to TPs between −110 and +20. All voltage protocols were delivered at 0.1 Hz.
Tyrode solution contained (mM): NaCl 136, KCl 5.4, MgCl2 1, CaCl2 1, NaH2PO4 0.33, Hepes 5 and dextrose 10 (pH 7.35 with NaOH). The cell-storage solution contained (mM): KCl 20, KH2PO4 10, dextrose 10, mannitol 40, L-glutamic acid 70, β-OH-butyric acid 10, taurine 20, EGTA 10 and 0.1% bovine serum albumin (pH 7.3, KOH). Nifedipine (5 μM) was used to suppress L-type Ca^2+ current (ICa) in all experiments. 4-Aminopyridine (4-AP, 2 mM) was added to suppress transient outward current (Ito). […] Na+ current (INa) contamination was avoided by using a HP of −40 mV for recording of hyperpolarization-induced currents and by substitution of equimolar Tris-HCl for external NaCl for tail-current recordings.

[1] = system: instantaneous inward-rectifier current; test: Whole-cell patch-clamp of instantaneous inward-rectifier current in canine cardiomyocytes; assay type: cell-based; conditions: 1 μM tertiapin-Q; not statistically significant
Protocol: as §1
as §2, with “For standard microelectrode experiments, intact tissue preparations including the LA and adjacent PVs were mounted in a chamber and perfused via the circumflex artery with oxygenated Krebs solution at 36±0.5° C. (see for example Kneller et al. 2002).” left out
Currents were recorded with the whole-cell patch-clamp technique at 36±0.5° C., as described in Yue et al. 1996. […] Capacitance was assessed using 5 mV, 10 ms hyperpolarizing steps from a holding potential (HP) of −60 mV. […]
as §3, with “Recordings were repeated 3 times, and mean values obtained.” left out, “All voltage protocols were delivered at 0.1 Hz.” left out

[2] = system: AT-remodeled canine left atrial (LA) preparations; test: Atrial tachyarrhythmia induction in AT-remodeled coronary-perfused LA preparations in vitro
Protocol: Briefly, dogs were subjected to 7-13 days of AT at about 400 beats per minute (bpm). LA preparations were then coronary-perfused and studied intact in vitro or subjected to cardiomyocyte isolation. IKH was studied with patch clamp.
Adult dogs were divided into control and AT groups. AT dogs were initially anesthetized with diazepam (0.25 mg/kg IV), ketamine (5.0 mg/kg IV), and halothane (1% to 2%) for transvenous insertion of right ventricular (RV) and right atrial (RA) unipolar pacing leads connected to ventricular and atrial pacemakers implanted in the neck. Pacing began 24 hours after pacemaker implantation. AV block was created by radiofrequency catheter ablation and the RV demand-pacemaker was programmed to 80 bpm. The RA was then tachypaced (400 bpm) for 7-13 days.
On study days, dogs were anesthetized with pentobarbital (30 mg·kg^−1 I.V.) and artificially ventilated. Hearts and adjacent lung tissue were excised via a left thoracotomy and immersed in oxygenated Tyrode solution. For cell isolation, the proximal circumflex coronary artery was cannulated and distal ends of PV myocardial sleeves were marked with silk thread prior to enzyme perfusion with collagenase (100 U mL^−1, Worthington, type II), to facilitate identification after enzymatic digestion. PVs were well-perfused and single cardiomyocytes were isolated from all PVs. After isolation, cells were stored at 4° C. and studied within 12 hours.
For standard-microelectrode experiments and atrial-tachyarrhythmia induction, intact tissue preparations including the LA and adjacent PVs were mounted in a Plexiglas chamber and perfused via the left circumflex coronary artery with oxygenated Kreb's solution at 36±0.5° C. Fine-tipped microelectrodes (resistance 15-20 MΩ when filled with 3-mol/L KCL) coupled to a high-input impedance amplifier were used to record Action Potentials.
For atrial tachyarrhythmia induction, single S2-extrastimuli following 15 S1-stimuli at basic cycle lengths (CLs) of 150-400 ms with a 5-second pause to observe the response were used. All stimuli were twice-threshold, 2-ms pulses.

Kir1 channels = molecular target: T1, Kir1 channels (Homo sapiens, UniProt P48048); conditions: Jin & Lu, 1999; cited from earlier work
T1 sequence (P48048 1-391): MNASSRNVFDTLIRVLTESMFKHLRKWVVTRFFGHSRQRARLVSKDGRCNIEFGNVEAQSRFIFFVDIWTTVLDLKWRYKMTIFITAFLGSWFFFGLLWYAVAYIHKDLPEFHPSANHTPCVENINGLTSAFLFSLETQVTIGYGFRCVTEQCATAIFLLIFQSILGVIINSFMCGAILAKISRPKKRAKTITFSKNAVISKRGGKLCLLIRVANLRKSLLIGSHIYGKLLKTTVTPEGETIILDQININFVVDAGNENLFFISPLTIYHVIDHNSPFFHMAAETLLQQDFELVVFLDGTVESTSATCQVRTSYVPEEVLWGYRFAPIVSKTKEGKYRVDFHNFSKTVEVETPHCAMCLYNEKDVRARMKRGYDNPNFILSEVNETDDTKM

In the case of tertiapin-Q, the “effect on time-dependent IKH (in words)” value (IKH; 200 nM tertiapin-Q, PV cardiomyocyte) is reported as “abolished”, the “effect on time-dependent current (in words)” value (IKH; 1 μM tertiapin-Q, PV cardiomyocytes) is reported as “eliminated” and the IC50 (IKH; at −120 mV, PV cardiomyocytes, read-out: IC50 for time-dependent IKH) is reported as 10 nM and ~10 nM. For the same substance, the mean end-pulse current (IKH; at −120 mV, after 200 nM tertiapin-Q (before −2.84±0.89)) was 0.09±0.01 pA pF^−1, the “decrease of mean instantaneous current” value [1] was 25% and the tachyarrhythmia cycle length ([2]; 100 nM TQ, without TQ 108±0.3 ms) was 179 ± 0.8 ms. For the same substance, the mean tachyarrhythmia duration ([2]; 100 nM TQ, without TQ 11602±604 ms) was 520 ± 6 ms, the “time to termination of arrhythmia after TQ administration” value ([2]; 2 cases of tachyarrhythmia lasting uninterrupted for more than 20 minutes) was at most 4 min and the IC50 (Kir1 channels) was 2 nM.
